Laboratory results published in patent US7069876B2, “Methods for raising pre-adult anadromous fish” (MariCal, Inc., priority 2000, dated 2006).

Tested on: shark kidney calcium receptor (SKCaR)
Test: FURA-2 ratio imaging fluorescence assay in HEK cells expressing SKCaR
Assay type: cell-based, dogfish (Squalus acanthias)
Conditions: 10 mM amino acid or AA Mixture; extracellular Ca2+ 0.5–20 mM (FIG. 52)
Text: Full length recombinant dogfish (Squalus acanthias) shark kidney calcium receptor ([…] NO.: 17) was expressed in human embryonic kidney […] ligated into the mammalian expression vector […] and transfected into HEK cells using standard techniques. The presence of SKCaR protein in transfected cells was verified by western blotting. Activation of SKCaR and its ability to respond to individual amino acids or mixtures thereof was quantified using a well characterized FURA-2 ratio imaging fluorescence assay where increases in intracellular Ca^2+ produced by SKCaR activation are detected and expressed as % normalized intracellular calcium response to receptor activation. Bai, M., S. et al., J. Biol. Chem., 32:19537-19545 (1996); Conigrave, A, et al., Proc. Nat. Acad. Sci. 97:4814-4819 (2000). […] Baseline extracellular Ca^2+ concentration was 0.5 mM. Aliquots of Ca^2+ were added to produce final extracellular concentrations of 2.5 mM, 5 mM, 7.5 mM, 10 mM and 20 mM Ca^2+ with changes in the fluorescence recorded.

| Compound | effect on SKCaR's response to extracellular Ca2+ |
| --- | --- |
| N[C@@H](Cc1ccccc1)C(=O)O [Phe, Phenylalanine] | increase SKCaR's response to a given Ca^2+ concentration |
| CC[C@H](C)[C@H](N)C(=O)O [Ile, L-Isoleucine] | increase SKCaR's response to a given Ca^2+ concentration |
